Experimental data: patent US20240190841A1, “MODULATORS OF BCL6 PROTEOLYSIS AND ASSOCIATED METHODS OF USE” (Arvinas Operations, Inc., priority 2022, published 2024)

molecular target: T1, BCL6 (Homo sapiens, UniProt P41182); experiment: Immunofluorescence high content imaging of BCL6 degradation in T47D cells; type: cell-based; settings: T47D breast cancer epithelial cells, 3 days incubation
T1 construct: endogenous in cells; host or cells: T47D breast cancer epithelial cells
Experimental: Immunofluorescence Protocol for High Content Imaging of BCL6
T47D cells were seeded in 100 μl volume of RPMI11640-10% FBS in a 96-well black/clear bottom plates for adherent lines (Corning #3904).
Day 1. T47D breast cancer epithelial cells were seeded at a density so that confluence is ˜70-90% at endpoint. Cells were seeded at 7K/0.1 mL/well the morning prior to the addition of exemplary bifunctional degradation compounds.
Day 2. Prepare an 11 point 3-fold serial dilution of exemplary bifunctional compound in DMSO and aliquot an appropriate volume to cell growth media to generate a 2× final concentration of exemplary bifunctional compound. Add an equal volume (0.1 ml) of 2× exemplary bifunctional compound/media mix to previously plated cells, for a final top concentration in aqueous cell growth media of 0.1 or 1 μM. Incubate for 3 days at 37° C., 5% CO2.
Day 5 Immunofluorescence. Discard cell media. Wash wells with 200 μl of room temperature phosphate-buffered saline (PBS). Prepared 4% paraformaldehyde (PFA) from 16% PFA (Electron Microscopy Sciences #15710) using 1×PBS. Fifty μL of 4% PF was added to each well and incubate for 15 minutes at room temperature to fix the cells. The PFA was aspirated and the cells washed twice with PBS (200 μL)).
Prepared 0.1% Triton X-100 in PBS using 10% triton X-100 stock. The cells were permeabilized by adding 100 μL of the 0.1% Triton X-100 in PBS to each well to permeabilize cells and incubating at room temperature for 15 minutes. Cells were washed twice with PBS.
Prepared 3% BSA/PBS (from Thermofisher #37515 Blocker BSA in TBS, 10%), and 100 μL was added to each well. The cells were incubated for at least 1 hour at room temperature.
Prepared 1% BSA/PBS using Blocker BSA/PBS, and the 3% BSA/PBS removed from the wells.
For no primary antibody controls, 50 μL 1% BSA/PBS was added.
Primary antibody (BCL6 Rb Ab, CST-14895, Cell Signaling) was diluted 1:300 in 1% BSA/PBS using Blocker BSA/PBS.
Fifty μl of primary antibody added to all remaining wells (i.e., all wells other than the primary antibody controls) and the cells were incubated overnight at 4° C. with slow orbital movement.
Day 6. Contents of the wells was removed and the cells washed four times with 200 μL PBS. 1% BSA/PBS was prepared using Blocker BSA in PBS.
Diluted secondary antibody goat anti-Rb IgG Alexa-488 1:1000, and cell mask-Alexa-647 1:3000 in 1% BSA/PBS in the same mix. Add 50 μL to each well and incubate at room temperature for 1 hour in the dark.
Cells were washed three times with 200 μL PBS, and then incubated for 10 minutes with 100 μL Hoechst dye at 1 μg/mL (20 mM stock) to stain cell nuclei. Wells were then washed with 200 μl PBS, and 100 μL of PBS was added to each well and the plate covered plate with a plastic opaque cover. Plates were stored at […] and covered in aluminum foil until imaged.
Plates were equilibrated to room temperature prior to reading. The bottom of the plate was wiped with 70% isopropanol immediately prior to imaging.
Imaging: • 10×, 4 fields/well, include Top hat smoothing in the analysis protocol.
Supplies/Reagents: • 16% paraformaldehyde: Electron Microscopy Sciences #15710 • Hoechst: Thermofisher #62249 • Blocker BSA in PBS, 10%: Thermofisher #37515 • Blocker BSA in TBS, 10%: Thermofisher #37520 • Goat anti-rabbit or mouse AlexaFluor-488: Thermofisher #A11008 • Cell mask deep red AlexaFluor-647: Thermofisher #C10046 • Wash buffer, PBS: 20×PBS, Thermofisher

| Compound | DC50 [nM] | Dmax [%] |
| --- | --- | --- |
| CNC(=O)COc1cc2cc(Nc3nc(N4CCC(O[C@H]5C[C@H](N6CCN(c7ccc8ncn(C9CCC(=O)NC9=O)c8c7)CC6)C5)CC4)ncc3Cl)ccc2n(C(C)C)c1=O (some centres unmarked) [Compound 24, 2-({6-[(5-chloro-2-{4-[(1r,3r)-3-{4-[1-(2,6-dioxopiperidin-3-yl)-1H-1,3-benzodiazol-6-yl]piperazin-1-yl}cyclobutoxy]piperidin-1-yl}pyrimidin-4-yl)amino]-2-oxo-1-(propan-2-yl)-1,2-dihydroquinolin-3-yl}oxy)-N-methylacetamide] | < 10 | ≥ 70 |
| CNC(=O)COc1cc2cc(Nc3nc(N4CCC(O[C@H]5C[C@H](N6CCN(c7cc(OC)c8c(c7)n(C)c(=O)n8C7CCC(=O)NC7=O)CC6)C5)CC4)ncc3Cl)ccc2n(C(C)C)c1=O (some centres unmarked) [Compound 25, 2-({6-[(5-chloro-2-{4-[(1r,3r)-3-{4-[1-(2,6-dioxopiperidin-3-yl)-7-methoxy-3-methyl-2-oxo-2,3-dihydro-1H-1,3-benzodiazol-5-yl]piperazin-1-yl}cyclobutoxy]piperidin-1-yl}pyrimidin-4-yl)amino]-2-oxo-1-(propan-2-yl)-1,2-dihydroquinolin-3-yl}oxy)-N-methylacetamide] | < 10 | – |
| CNC(=O)COc1cc2cc(Nc3nc(N4CCC(O[C@H]5C[C@H](N6CCN(c7cc(C)c8c(c7)n(C)c(=O)n8C7CCC(=O)NC7=O)CC6)C5)CC4)ncc3Cl)ccc2n(C(C)C)c1=O (some centres unmarked) [Compound 26, 2-({6-[(5-chloro-2-{4-[(1r,3r)-3-{4-[1-(2,6-dioxopiperidin-3-yl)-3,7-dimethyl-2-oxo-2,3-dihydro-1H-1,3-benzodiazol-5-yl]piperazin-1-yl}cyclobutoxy]piperidin-1-yl}pyrimidin-4-yl)amino]-2-oxo-1-(propan-2-yl)-1,2-dihydroquinolin-3-yl}oxy)-N-methylacetamide] | 10 to 50 | 50 to 70 |
| CNC(=O)COc1cc2cc(Nc3nc(N4CCC(O[C@H]5C[C@H](N6CCN(c7cc(F)c8c(c7F)n(C)c(=O)n8C7CCC(=O)NC7=O)CC6)C5)CC4)ncc3Cl)ccc2n(C(C)C)c1=O (some centres unmarked) [Compound 27, 2-({6-[(5-chloro-2-{4-[(1r,3r)-3-{4-[1-(2,6-dioxopiperidin-3-yl)-4,7-difluoro-3-methyl-2-oxo-2,3-dihydro-1H-1,3-benzodiazol-5-yl]piperazin-1-yl}cyclobutoxy]piperidin-1-yl}pyrimidin-4-yl)amino]-2-oxo-1-(propan-2-yl)-1,2-dihydroquinolin-3-yl}oxy)-N-methylacetamide] | < 10 | ≥ 70 |
| CNC(=O)COc1cc2cc(Nc3nc(N4CCC(O[C@H]5C[C@H](N6CCN(c7ccc8c(c7F)n(C(C)C)c(=O)n8C7CCC(=O)NC7=O)CC6)C5)CC4)ncc3Cl)ccc2n(C(C)C)c1=O (some centres unmarked) [Compound 28, 2-({6-[(5-chloro-2-{4-[(1r,3r)-3-{4-[1-(2,6-dioxopiperidin-3-yl)-4-fluoro-2-oxo-3-(propan-2-yl)-2,3-dihydro-1H-1,3-benzodiazol-5-yl]piperazin-1-yl}cyclobutoxy]piperidin-1-yl}pyrimidin-4-yl)amino]-2-oxo-1-(propan-2-yl)-1,2-dihydroquinolin-3-yl}oxy)-N-methylacetamide] | < 10 | ≥ 70 |
| CNC(=O)COc1cc2cc(Nc3nc(N4CCC(O[C@H]5C[C@H](N6CCN(c7cc(F)c8c(c7)n(C(C)C)c(=O)n8C7CCC(=O)NC7=O)CC6)C5)CC4)ncc3Cl)ccc2n(C(C)C)c1=O (some centres unmarked) [Compound 29, 2-({6-[(5-chloro-2-{4-[(1r,3r)-3-{4-[1-(2,6-dioxopiperidin-3-yl)-7-fluoro-2-oxo-3-(propan-2-yl)-2,3-dihydro-1H-1,3-benzodiazol-5-yl]piperazin-1-yl}cyclobutoxy]piperidin-1-yl}pyrimidin-4-yl)amino]-2-oxo-1-(propan-2-yl)-1,2-dihydroquinolin-3-yl}oxy)-N-methylacetamide] | < 10 | ≥ 70 |
| CNC(=O)COc1cc2cc(Nc3nc(N4CCC(O[C@H]5C[C@H](N6CCN(c7cc(C)c8c(c7)CN(C7CCC(=O)NC7=O)C8=O)CC6)C5)CC4)ncc3Cl)ccc2n(C(C)C)c1=O (some centres unmarked) [Compound 36, 2-({6-[(5-chloro-2-{4-[(1r,3r)-3-{4-[2-(2,6-dioxopiperidin-3-yl)-7-methyl-1-oxo-3H-isoindol-5-yl]piperazin-1-yl}cyclobutoxy]piperidin-1-yl}pyrimidin-4-yl)amino]-1-isopropyl-2-oxoquinolin-3-yl}oxy)-N-methylacetamide] | < 10 | 50 to 70 |
| CNC(=O)COc1cc2cc(Nc3nc(N4CCC(O[C@H]5C[C@H](N6CCC(c7cc(C)c8c(c7)CN(C7CCC(=O)NC7=O)C8=O)CC6)C5)CC4)ncc3Cl)ccc2n(C(C)C)c1=O (some centres unmarked) [Compound 37, 2-({6-[(5-chloro-2-{4-[(1r,3r)-3-{4-[2-(2,6-dioxopiperidin-3-yl)-7-methyl-1-oxo-3H-isoindol-5-yl]piperidin-1-yl}cyclobutoxy]piperidin-1-yl}pyrimidin-4-yl)amino]-1-isopropyl-2-oxoquinolin-3-yl}oxy)-N-methylacetamide] | < 10 | ≥ 70 |
| CNC(=O)COc1cc2cc(Nc3nc(N4CCC(O[C@H]5C[C@H](N6CC[C@@H](c7cc(C)c8c(c7F)CN([C@H]7CCC(=O)NC7=O)C8=O)[C@@H](F)C6)C5)CC4)ncc3Cl)ccc2n(C(C)C)c1=O [Compound 38, 2-({6-[(5-chloro-2-{4-[(1r,3r)-3-[(3R,4S)-4-{2-[(3S)-2,6-dioxopiperidin-3-yl]-4-fluoro-7-methyl-1-oxo-3H-isoindol-5-yl}-3-fluoropiperidin-1-yl]cyclobutoxy]piperidin-1-yl}pyrimidin-4-yl)amino]-1-isopropyl-2-oxoquinolin-3-yl}oxy)-N-methylacetamide] | < 10 | 50 to 70 |
| CNC(=O)COc1cc2cc(Nc3nc(N4CCC(O[C@H]5C[C@H](N6CC[C@H](c7cc(C)c8c(c7F)CN([C@H]7CCC(=O)NC7=O)C8=O)[C@H](F)C6)C5)CC4)ncc3Cl)ccc2n(C(C)C)c1=O [Compound 39, 2-({6-[(5-chloro-2-{4-[(1r,3r)-3-[(3S,4R)-4-{2-[(3S)-2,6-dioxopiperidin-3-yl]-4-fluoro-7-methyl-1-oxo-3H-isoindol-5-yl}-3-fluoropiperidin-1-yl]cyclobutoxy]piperidin-1-yl}pyrimidin-4-yl)amino]-1-isopropyl-2-oxoquinolin-3-yl}oxy)-N-methylacetamide] | < 10 | ≥ 70 |
| CNC(=O)COc1cc2cc(Nc3nc(N4CCN(C(=O)CC5(O)CCN(c6ccc7c(c6F)CN(C6CCC(=O)NC6=O)C7=O)CC5)CC4)ncc3Cl)ccc2n(C(C)C)c1=O (centres unmarked) [Compound 40, 2-{[6-({5-chloro-2-[4-(2-{1-[2-(2,6-dioxopiperidin-3-yl)-4-fluoro-1-oxo-3H-isoindol-5-yl]-4-hydroxypiperidin-4-yl}acetyl)piperazin-1-yl]pyrimidin-4-yl}amino)-1-isopropyl-2-oxoquinolin-3-yl]oxy}-N-methylacetamide] | < 10 | ≥ 70 |
| CNC(=O)COc1cc2cc(Nc3nc(N4CCC(O)(CC(=O)N5CCN(c6ccc7c(c6F)CN(C6CCC(=O)NC6=O)C7=O)CC5)CC4)ncc3Cl)ccc2n(C(C)C)c1=O (centres unmarked) [Compound 41, 2-{[6-({5-chloro-2-[4-(2-{4-[2-(2,6-dioxopiperidin-3-yl)-4-fluoro-1-oxo-2,3-dihydro-1H-isoindol-5-yl]piperazin-1-yl}-2-oxoethyl)-4-hydroxypiperidin-1-yl]pyrimidin-4-yl}amino)-2-oxo-1-(propan-2-yl)-1,2-dihydroquinolin-3-yl]oxy}-N-methylacetamide] | < 10 | ≥ 70 |
